pIC50 data for eleven compounds are collected here from US20240209019A1, “COMPOUNDS AND METHODS FOR TREATING HYPERKALEMIA” (ARDELYX, INC., priority 2019, published 2024).

In the experiment the target is HSD2 (Homo sapiens (Human), UniProt P80365). The experiment in a line: HSD2 activity: cortisol conversion in human descending colon organoid monolayer cultures (Example 112). The settings on record: human descending colon epithelial cultures on transwells; 30 minute pre-incubation, then 40 nM cortisol for four hours; cortisol HTRF assay. (TR-FRET usually uses a lanthanide donor and a delayed reading to cut background.)
Sequence of HSD2 (P80365 whole entry): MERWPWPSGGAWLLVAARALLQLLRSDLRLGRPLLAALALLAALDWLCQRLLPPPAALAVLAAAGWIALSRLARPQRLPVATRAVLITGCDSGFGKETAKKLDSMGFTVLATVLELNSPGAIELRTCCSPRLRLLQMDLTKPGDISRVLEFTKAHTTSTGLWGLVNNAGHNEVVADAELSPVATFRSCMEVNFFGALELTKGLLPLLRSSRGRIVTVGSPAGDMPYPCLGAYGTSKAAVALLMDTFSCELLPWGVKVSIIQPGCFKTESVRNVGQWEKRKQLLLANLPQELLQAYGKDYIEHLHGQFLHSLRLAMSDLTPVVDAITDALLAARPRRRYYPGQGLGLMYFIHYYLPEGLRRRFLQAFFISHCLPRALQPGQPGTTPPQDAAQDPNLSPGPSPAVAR
Experimental: Human descending colon epithelial stem cells were cultured as 3D organoids in accordance with Sato et al. Gastroenterology. […] Cultures were differentiated using SBM containing ENRA and 30 nM aldosterone on day 3, and cultures were used for assay on day 6 or 7. Compounds were diluted in DMSO and serial dilutions prepared by titrating in DMSO. Compounds were then diluted into DMEM/F12. Transwell plates containing descending colon cultures were washed twice with DMEM/F12 and compound was added to the apical compartment. Cells were incubated with test compound for 30 minutes at 37° C., 5% CO2 to equilibrate across the cell membrane. A second compound plate was prepared in which the serially diluted compounds in DMSO were diluted into DMEM/F12 containing 40 nM cortisol. Following the 30 minute pre-incubation step, the apical media was aspirated and compounds diluted in DMEM/F12 with 40 nM cortisol were added to the apical side of the transwell. The plate was then incubated for four hours at 37° C., 5% CO2. Cortisol levels were measured using a cortisol HTRF assay kit as described by the manufacturer (Cisbio). Concentration-response curves were then plotted and IC50 (and pIC50) values were determined using least squares non-linear regression.
Inhibition of HSD2 activity as measured by the inhibition of the conversion of cortisone to cortisol.
Usually pIC50 stands for the negative decadic logarithm of the IC50, by convention in mol/L. Compound “2-(3-((1-PEG5K-1H-1,2,3-triazol-4-yl)methoxy)-4-nitrobenzyl) 9-((5-methyl-2-oxo-1,3-dioxol-4-yl)methyl) (2S,4aS,6aS,6bR,8aR,9S,10S,12aS,12bR,14bR)-10-((2,5,8,11-tetraoxatetradecan-14-oyl)oxy)-2,4a,6a,6b,9,12a-hexamethyl-13-oxo-1,2,3,4,4a,5,6,6a,6b,7,8,8a,9,10,11,12,12a,12b,13,14b-icosahydropicene-2,9-dicarboxylate [Compound 605-2]” yielded a pIC50 of 6.9.

The compound `CCOC(=O)c1cnn([C@H]2CC[C@@]3(C)[C@@H](CC[C@]4(C)[C@@H]3C(=O)C=C3[C@@H]5C[C@@](C)(C(=O)O)CC[C@]5(C)CC[C@]34C)[C@]2(C)C(=O)OCc2oc(=O)oc2C)c1OC` [Compound 713-1, (2S,4aS,6aS,6bR,8aR,9S,10S,12aS,12bR,14bR)-10-[4-(ethoxycarbonyl)-5-methoxy-1H-pyrazol-1-yl]-2,4a,6a,6b,9,12a-hexamethyl-9-{[(5-methyl-2-oxo-2H-1,3-dioxol-4-yl)methoxy]carbonyl}-13-oxo-1,2,3,4,4a,5,6,6a,6b,7,8,8a,9,10,11,12,12a,12b,13,14b-icosahydropicene-2-carboxylic acid] had a pIC50 of 6.9. In the case of `CC(=O)O[C@H]1CC[C@@]2(C)[C@@H](CC[C@]3(C)[C@@H]2C(=O)C=C2[C@@H]4C[C@@](C)(C(=O)O)CC[C@]4(C)CC[C@]23C)[C@]1(C)C(=O)OCc1oc(=O)oc1-c1ccccc1` [Compound 707-1, (2S,4aS,6aS,6bR,8aR,9S,10S,12aS,12bR,14bR)-10-(acetyloxy)-2,4a,6a,6b,9,12a-hexamethyl-13-oxo-9-{[(2-oxo-5-phenyl-2H-1,3-dioxol-4-yl)methoxy]carbonyl}-1,2,3,4,4a,5,6,6a,6b,7,8,8a,9,10,11,12,12a,12b,13,14b-icosahydropicene-2-carboxylic acid] it was 7.1; in that of `CC1(C)[C@@H](OCC(=O)O)CC[C@]2(C)[C@H]3C(=O)C=C4[C@@H]5C[C@@](C)(C(=O)O)CC[C@]5(C)CC[C@@]4(C)[C@]3(C)CC[C@@H]12` [Compound 78-2, (2S,4aS,6aS,6bR,8aR,10S,12aS,12bR,14bR)-10-(Carboxymethoxy)-2,4a,6a,6b,9,9,12a-heptamethyl-13-oxo-1,2,3,4,4a,5,6,6a,6b,7,8,8a,9,10,11,12,12a,12b,13,14b-icosahydropicene-2-carboxylic acid], 5.4. In the case of `Cc1oc(=O)oc1COC(=O)[C@H]1CC[C@]2(C)[C@H]3C(=O)C=C4[C@@H]5C[C@@](C)(C(=O)O)CC[C@]5(C)CC[C@@]4(C)[C@]3(C)CC[C@H]2C1(C)C` [Compound 176-2, (2S,4aS,6aS,6bR,8aS,10S,12aS,12bR,14bR)-2,4a,6a,6b,9,9,12a-Heptamethyl-10-(((5-methyl-2-oxo-1,3-dioxol-4-yl)methoxy)carbonyl)-13-oxo-1,2,3,4,4a,5,6,6a,6b,7,8,8a,9,10,11,12,12a,12b,13,14b-icosahydropicene-2-carboxylic acid] it was 6.3; in that of `CCc1oc(=O)oc1COC(=O)[C@@]1(C)[C@@H]2CC[C@]3(C)[C@H](C(=O)C=C4[C@@H]5C[C@@](C)(C(=O)O)CC[C@]5(C)CC[C@]43C)[C@@]2(C)CC[C@@]1(C)OC(C)=O` [Compound 703-1, (2S,4aS,6aS,6bR,8aR,9S,10R,12aS,12bR,14bR)-10-(acetyloxy)-9-{[(5-ethyl-2-oxo-2H-1,3-dioxol-4-yl)methoxy]carbonyl}-2,4a,6a,6b,9,10,12a-heptamethyl-13-oxo-1,2,3,4,4a,5,6,6a,6b,7,8,8a,9,10,11,12,12a,12b,13,14b-icosahydropicene-2-carboxylic acid], 6.1; in that of `COCCOCCOCCSCc1oc(=O)oc1COC(=O)CO[C@H]1CC[C@]2(C)[C@H]3C(=O)C=C4[C@@H]5C[C@@](C)(C(=O)O)CC[C@]5(C)CC[C@@]4(C)[C@]3(C)CC[C@H]2C1(C)C` [Compound 710-1, (2S,4aS,6aS,6bR,8aR,10S,12aS,12bR,14bR)-2,4a,6a,6b,9,9,12a-heptamethyl-13-oxo-10-(2-oxo-2-{[2-oxo-5-(2,5,8-trioxa-11-thiadodecan-12-yl)-2H-1,3-dioxol-4-yl]methoxy}ethoxy)-1,2,3,4,4a,5,6,6a,6b,7,8,8a,9,10,11,12,12a,12b,13,14b-icosahydropicene-2-carboxylic acid], 6. To `COCO[C@H]1CC[C@@]2(C)[C@@H](CC[C@]3(C)[C@@H]2C(=O)C=C2[C@@H]4C[C@@](C)(C(=O)O)CC[C@]4(C)CC[C@]23C)[C@]1(C)C(=O)OCc1oc(=O)oc1C` [Compound 205-2, (2S,4aS,6aS,6bR,8aR,9S,10S,12aS,12bR,14bR)-10-(Methoxymethoxy)-2,4a,6a,6b,9,12a-hexamethyl-9-(((5-methyl-2-oxo-1,3-dioxol-4-yl)methoxy)carbonyl)-13-oxo-1,2,3,4,4a,5,6,6a,6b,7,8,8a,9,10,11,12,12a,12b,13,14b-icosahydropicene-2-carboxylic acid] belongs 6.4; to `C[C@]1(C(=O)O)CC[C@]2(C)CC[C@]3(C)C(=CC(=O)[C@@H]4[C@@]5(C)CC[C@H](OC(=O)CO)[C@@](C)(C(=O)O)[C@@H]5CC[C@]43C)[C@@H]2C1` [(2S,4aS,6aS,6bR,8aR,9S,10S,12aS,12bR,14bR)-10-[(2-hydroxyacetyl)oxy]-2,4a,6a,6b,9,12a-hexamethyl-13-oxo-1,2,3,4,4a,5,6,6a,6b,7,8,8a,9,10,11,12,12a,12b,13,14b-icosahydropicene-2,9-dicarboxylic acid], 5.9.

In turn, `CC1(C)[C@@H](C(=O)O)CC[C@]2(C)[C@H]3C(=O)C=C4[C@@H]5C[C@@](C)(C(=O)O)CC[C@]5(C)CC[C@@]4(C)[C@]3(C)CC[C@@H]12` [(2S,4aS,6aS,6bR,8aS,10S,12aS,12bR,14bR)-2,4a,6a,6b,9,9,12a-heptamethyl-13-oxo-1,2,3,4,4a,5,6,6a,6b,7,8,8a,9,10,11,12,12a,12b,13,14b-icosahydropicene-2,10-dicarboxylic acid] returned a negative-log IC50 (pIC50) of 5.5. In the case of `CC(=O)O[C@H]1CC[C@@]2(C)[C@@H](CC[C@]3(C)[C@@H]2C(=O)C=C2[C@@H]4C[C@@](C)(C(=O)O)CC[C@]4(C)CC[C@]23C)[C@]1(C)C(=O)OCc1oc(=O)oc1C(C)(C)C` [Compound 705-1, (2S,4aS,6aS,6bR,8aR,9S,10S,12aS,12bR,14bR)-10-(acetyloxy)-9-{[(5-tert-butyl-2-oxo-2H-1,3-dioxol-4-yl)methoxy]carbonyl}-2,4a,6a,6b,9,12a-hexamethyl-13-oxo-1,2,3,4,4a,5,6,6a,6b,7,8,8a,9,10,11,12,12a,12b,13,14b-icosahydropicene-2-carboxylic acid] it was 6.6.
